{6FAM} = 6-carboxyfluorescein label
Assays:
β-catenin = experiment: Topical IWR-1 pre-treatment of adult murine skin followed by TRF; format: in vivo, C57B1/6 mice
Experimental: Mice were randomly (www.random.org) divided into different groups as indicated in corresponding figure legends. The dorsal skin was shaved and hair was depilated using Nair® two days before experiments. TRF or its placebo (PBO) was applied topically at a dose of 5 mg/cm^2 skin, thrice per week. During the procedure, mice were anesthetized by low-dose isoflurane inhalation. Digital photographs were collected (Canon PowerShot S6 and Dermascope from Dino-lite ProII). In some experiments, to inhibit β-catenin expression, IWR-1 (Sigma; I0161) was used. A 10% DMSO stock IWR-1 solution was prepared and diluted with glycerol to a final concentration of 2 μg per 0.5 cm^2 of skin. This solution was applied topically on the dorsal skin of C57B1/6 mice at a dose of 12.5 μL/0.5 cm^2 for four consecutive days of IWR-1 or vehicle followed by 7 consecutive days of […] for one hour under occlusive dressing (Tegaderm™, 3M, St. Paul, Minn.).
Detection of anagen induction. Promotion of hair growth was evaluated by observing the skin color which is indicative of the telogen-to-anagen conversion.^50 Skin, collected and 8 μm formalin-fixed paraffin-embedded skin sections, were deparaffinized and stained with hematoxylin & eosin. Mosaic images at 20× were collected using Axioscanner (Zeiss Microscopy). From histological characterization of the sections, anagen follicles in dermis and subcutis layers were enumerated.
Histology, immunohistochemistry (IHC) and immunocytochemistry (ICC). Histology of skin was performed from 8 μm thick paraffin sections after staining with Hematoxylin and Eosin (H&E). Immunostaining of Ki67 (Abcam, ab15580; 1:400), LGR6 (Abcam, ab126747; 1:100), CD34 (Abcam, ab8158; 1:200), OCT4 (Abcam, ab19857; 1:200), SOX9 (Abcam, ab185230; 1:1000), KLF4 (Abcam; ab151733, 1:200), c-MYC (Abcam; ab32072, 1:200), NANOG (Abcam; ab80892, 1:200), K17 (Abcam, ab53707; 1:100), K15 (Abcam, ab52816; 1:100), Claudin (Invitrogen, RB9209P; 1:200), Occludin (Invitrogen, 711500; 1:200), ZO-1(Invitrogen, 617300; 1:200), ZO-2 (Invitrogen, 389100; 1:200), E-cadherin (Life Technologies, 131900; 1:200) and β-catenin (Abcam, ab22656; 1:200) were performed on paraffin and cryosections of skin sample using specific antibodies as indicated.^57 For immunocytochemistry, cells were fixed with cell fixation buffer (ebiosciences; 00-8222-49) and stained for respective antibodies. Specificity of the antibodies were validated using rabbit isotype control (Abcam, ab27478; 1:400), rat isotype control (Abcam, ab18412; 1:200), and mouse isotype control (Abcam, ab18443; 1:200) (FIG. 13). Briefly, OCT embedded tissue were cryosectioned (10 μm), fixed with cold acetone, blocked with 10% normal goat serum and incubated with specific antibodies overnight at 4° C. Signal was visualized by subsequent incubation with either biotinylated-tagged for DAB staining and fluorescence-tagged appropriate secondary antibodies (Alexa 488-tagged α-mouse, 1:200; Alexa 568-tagged α-mouse, 1:200; Alexa 488-tagged α-rabbit, 1:200; Alexa 568-tagged α-rabbit, 1:200; Alexa 568-tagged α-rat, 1:200).

β-catenin-Tcf3 complex = experiment: Tcf3 decoy transfection of keratinocytes with tocotrienol treatment (quantitative immunocytochemistry); format: cell-based, human; conditions: 24 h
Experimental: (§1) Cell and cell culture. Immortalized human keratinocytes (HaCaT) were grown in Dulbecco's low-glucose modified Eagle's medium (Life Technologies) as described previously.^55 Cells were maintained in a standard culture incubator with humidified air containing 5% CO2 at 37° C.
Synthesis of Tcf3 decoy and control double-stranded oligodeoxynucleotides. Tcf3 decoy and control double-stranded oligodeoxynucleotides were prepared as described previously.^22 Briefly, FAM labelled phosphorothioate oligodeoxynucleotides were synthesized and purified by Sigma-Aldrich. The oligonucleotides sequence used were as follow: Tcf3 decoy sense, 5′-6FAM-CCGGGCTTTGATCTTTGC-3′ (SEQ ID NO:1); Tcf3 decoy anti-sense, 5′-6FAM-GCAAAGATCAAAGCCCGG-3′ (SEQ ID NO:2); Tcf3 scramble sense, 5′-6FAM-CCGGGTCAGTTCTTTTGC -3′ (SEQ ID NO:3); Tcf3 scramble anti-sense, 5′-6FAM-GCAAAAGAACTGACCCGG -3′ (SEQ ID NO:4). […]
(§2) Histology, immunohistochemistry (IHC) and immunocytochemistry (ICC). […] Signal was visualized by subsequent incubation with either biotinylated-tagged for DAB staining and fluorescence-tagged appropriate secondary antibodies (Alexa 488-tagged α-mouse, 1:200; Alexa 568-tagged α-mouse, 1:200; Alexa 488-tagged α-rabbit, 1:200; Alexa 568-tagged α-rabbit, 1:200; Alexa 568-tagged α-rat, 1:200).

β-catenin and Tcf3 = experiment: Proximity ligation assay (PLA) for β-catenin-Tcf3 in keratinocytes; format: cell-based, human; conditions: 1 μM, 24 h
Experimental: as §1
In situ proximity ligation assay (PLA). PLA was performed as described previously using Sigma Duolink® in situ red starter kit for […] (DUO92105) following manufacturer's instructions except that the incubation time was prolonged to 90 minutes.^58 The assay was performed using rabbit Tcf3 (Abcam, ab69999; 1:50) and mouse β-catenin (Abcam, ab22656; 1:200) antibodies. Slides were imaged using Olympus FV 1000 spectral confocal microscope.

[1] = test system: human HaCaT keratinocytes; experiment: E-cadherin expression and β-catenin nuclear translocation in HaCaT keratinocytes (immunocytochemistry); format: cell-based; conditions: 24 h
Experimental: as §1
as §2, with “(ICC). Histology of skin was performed from 8 μm thick paraffin sections after staining with Hematoxylin and Eosin (H&E).” for “(ICC).”

Compound: O=C(Nc1cccc2cccnc12)c1ccc(N2C(=O)[C@@H]3[C@H](C2=O)[C@@H]2C=C[C@H]3C2)cc1 [IWR-1]
- TRF-induced translocation of β-catenin to the nucleus (β-catenin): inhibited TRF-induced translocation of β-catenin to the nucleus
- lowering of E-cadherin in response to TRF (β-catenin): did not influence
- epidermal β-catenin (β-catenin; TRF-treated adult skin): effective in degrading epidermal β-catenin
- number of anagen hair follicles induced by topical TRF (β-catenin; day 11 (day 7 post TRF application), vs vehicle): significantly decreased
- TRF-stimulated keratinocyte proliferation (Ki67+ cells) (β-catenin; vs vehicle DMSO): eliminating the effect of TRF on stimulating keratinocytes proliferation

Compound: Tcf3 decoy: FAM labelled phosphorothioate double-stranded oligodeoxynucleotide based on Tcf3 binding consensus sequence (SEQ ID NO:1/2) (sense CCGGGCTTTGATCTTTGC; antisense GCAAAGATCAAAGCCCGG; DNA, all phosphorothioate, 5' {6FAM}, methylation of C not given here)
- effect on tocotrienol-induced stemness and pluripotency factors (β-catenin-Tcf3 complex; decoy 0.1 μM vs scramble 0.1 μM, tocotrienol 1 μM): markedly blunted

Compound: α-tocotrienol [pure tocotrienol]
- stemness and pluripotency factors (SOX9, OCT4, K17, K15, KLF4, c-MYC, NANOG) in keratinocytes (β-catenin-Tcf3 complex; pure tocotrienol 1 μM): induction of stemness as well as pluripotency factors
- interaction of β-catenin and Tcf3 (PLA) (β-catenin and Tcf3): interaction of β-catenin and Tcf3 in the nucleus
- membrane E-cadherin expression ([1]; 1 μM): sharp decrease
- nuclear translocation of β-catenin ([1]; pure tocotrienol 1 μM): nuclear translocation of β-catenin
